Experiments:
Assay in all cases: Kinase profiling in a biochemical assay panel (mobility shift assays and ELISA), %-inhibition at 1 μM; selectivity entropy
[1] = biological target: T1, panel of more than 300 wild-type and mutant kinases (313 kinase panel) (Homo sapiens, UniProt Q14164); details: kinase IKKε; compound at 1 μM
T1 sequence (Q14164 1-716): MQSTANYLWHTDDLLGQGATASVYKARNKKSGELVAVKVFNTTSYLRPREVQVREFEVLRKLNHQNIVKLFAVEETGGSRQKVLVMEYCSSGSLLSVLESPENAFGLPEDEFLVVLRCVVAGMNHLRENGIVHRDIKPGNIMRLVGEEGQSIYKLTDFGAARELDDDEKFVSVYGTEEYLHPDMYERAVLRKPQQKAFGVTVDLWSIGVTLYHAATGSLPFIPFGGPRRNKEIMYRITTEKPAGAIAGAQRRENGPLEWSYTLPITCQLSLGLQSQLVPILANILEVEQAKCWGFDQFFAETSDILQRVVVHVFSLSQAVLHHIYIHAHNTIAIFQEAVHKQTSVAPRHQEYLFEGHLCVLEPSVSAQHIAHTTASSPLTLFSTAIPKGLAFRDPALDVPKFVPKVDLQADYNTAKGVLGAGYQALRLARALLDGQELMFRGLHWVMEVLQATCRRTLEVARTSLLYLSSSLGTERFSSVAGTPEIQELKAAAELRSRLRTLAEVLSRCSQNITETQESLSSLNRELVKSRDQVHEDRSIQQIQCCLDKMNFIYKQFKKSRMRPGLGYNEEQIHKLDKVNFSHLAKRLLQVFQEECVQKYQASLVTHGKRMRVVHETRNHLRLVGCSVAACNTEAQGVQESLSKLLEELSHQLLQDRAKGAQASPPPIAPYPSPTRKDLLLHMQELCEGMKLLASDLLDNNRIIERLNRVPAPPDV

[2] = biological target: panel of more than 300 wild-type and mutant kinases (313 kinase panel) (Homo sapiens, UniProt P28482); details: kinase Erk2; compound at 1 μM
[3] = biological target: T2, panel of more than 300 wild-type and mutant kinases (313 kinase panel) (Homo sapiens, UniProt P33981); details: kinase TTK; compound at 1 μM
T2 sequence (P33981 1-857): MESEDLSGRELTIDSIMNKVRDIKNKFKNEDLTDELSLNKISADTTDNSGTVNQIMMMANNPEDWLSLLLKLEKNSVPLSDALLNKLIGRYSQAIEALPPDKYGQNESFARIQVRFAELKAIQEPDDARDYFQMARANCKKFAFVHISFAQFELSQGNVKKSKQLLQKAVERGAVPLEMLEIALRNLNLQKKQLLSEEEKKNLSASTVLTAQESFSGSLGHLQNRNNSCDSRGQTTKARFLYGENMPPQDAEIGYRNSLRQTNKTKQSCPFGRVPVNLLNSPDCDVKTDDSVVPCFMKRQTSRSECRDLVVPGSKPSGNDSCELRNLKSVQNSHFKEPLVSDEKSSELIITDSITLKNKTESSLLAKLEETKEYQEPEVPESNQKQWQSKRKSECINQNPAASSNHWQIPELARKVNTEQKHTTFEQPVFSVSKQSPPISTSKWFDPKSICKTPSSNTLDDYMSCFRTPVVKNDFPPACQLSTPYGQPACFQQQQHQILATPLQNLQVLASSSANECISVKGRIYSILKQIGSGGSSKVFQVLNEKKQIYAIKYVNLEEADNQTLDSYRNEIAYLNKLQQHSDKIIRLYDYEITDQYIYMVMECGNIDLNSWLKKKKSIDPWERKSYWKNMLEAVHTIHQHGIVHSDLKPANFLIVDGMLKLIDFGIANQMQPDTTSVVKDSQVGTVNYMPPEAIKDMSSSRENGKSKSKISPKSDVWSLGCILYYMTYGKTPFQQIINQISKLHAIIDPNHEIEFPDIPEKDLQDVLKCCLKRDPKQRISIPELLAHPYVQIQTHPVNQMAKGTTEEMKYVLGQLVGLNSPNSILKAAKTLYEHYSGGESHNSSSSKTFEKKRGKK

[4] = biological target: panel of more than 300 wild-type and mutant kinases (313 kinase panel) (Homo sapiens, UniProt O94804)
Sequence of panel of more than 300 wild-type and mutant kinases (313 kinase panel) (Homo sapiens, UniProt O94804) (O94804 whole entry, change not shown): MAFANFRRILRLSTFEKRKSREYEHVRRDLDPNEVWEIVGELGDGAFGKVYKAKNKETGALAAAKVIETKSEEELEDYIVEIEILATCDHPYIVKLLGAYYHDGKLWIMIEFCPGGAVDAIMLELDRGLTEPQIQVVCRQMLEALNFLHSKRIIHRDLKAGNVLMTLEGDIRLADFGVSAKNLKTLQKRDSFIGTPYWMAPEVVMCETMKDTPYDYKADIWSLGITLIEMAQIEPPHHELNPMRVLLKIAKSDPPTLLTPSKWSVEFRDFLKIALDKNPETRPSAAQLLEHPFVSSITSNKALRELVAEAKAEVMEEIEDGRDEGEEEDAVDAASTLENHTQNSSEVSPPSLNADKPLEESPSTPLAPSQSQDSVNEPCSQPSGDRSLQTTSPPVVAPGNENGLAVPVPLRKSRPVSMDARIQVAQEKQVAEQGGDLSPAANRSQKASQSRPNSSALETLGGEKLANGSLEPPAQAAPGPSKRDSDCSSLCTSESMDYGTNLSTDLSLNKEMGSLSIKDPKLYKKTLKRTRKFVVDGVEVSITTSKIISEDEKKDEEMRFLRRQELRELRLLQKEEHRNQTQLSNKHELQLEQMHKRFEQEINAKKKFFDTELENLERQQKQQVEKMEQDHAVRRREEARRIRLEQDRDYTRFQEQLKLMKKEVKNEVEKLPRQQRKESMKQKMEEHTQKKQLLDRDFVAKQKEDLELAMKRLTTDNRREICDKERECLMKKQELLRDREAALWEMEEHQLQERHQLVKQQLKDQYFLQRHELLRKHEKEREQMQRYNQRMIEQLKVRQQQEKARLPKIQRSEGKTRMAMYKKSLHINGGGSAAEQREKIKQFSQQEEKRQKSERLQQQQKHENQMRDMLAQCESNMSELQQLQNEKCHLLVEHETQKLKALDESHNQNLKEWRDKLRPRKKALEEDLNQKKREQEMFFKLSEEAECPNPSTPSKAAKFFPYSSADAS

[5] = biological target: T3, panel of more than 300 wild-type and mutant kinases (313 kinase panel) (Homo sapiens, UniProt O14965); details: 1 μM compound; for %-inhibition, AurA/TPX2: kinase AurA/TPX2; for %-inhibition, AurA: kinase AurA
T3 sequence (O14965 1-403): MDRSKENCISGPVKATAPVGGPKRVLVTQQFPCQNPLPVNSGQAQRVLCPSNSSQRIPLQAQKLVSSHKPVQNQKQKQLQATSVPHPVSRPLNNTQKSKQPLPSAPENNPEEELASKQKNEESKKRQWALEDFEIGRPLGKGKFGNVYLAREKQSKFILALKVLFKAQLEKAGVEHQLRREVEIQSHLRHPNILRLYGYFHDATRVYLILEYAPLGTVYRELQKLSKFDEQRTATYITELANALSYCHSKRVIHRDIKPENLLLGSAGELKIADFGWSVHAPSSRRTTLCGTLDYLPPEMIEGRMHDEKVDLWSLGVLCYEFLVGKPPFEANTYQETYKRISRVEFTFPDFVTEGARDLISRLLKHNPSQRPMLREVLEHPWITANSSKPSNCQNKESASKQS

[6] = biological target: panel of more than 300 wild-type and mutant kinases (313 kinase panel) (Homo sapiens, UniProt P29376); details: kinase LTK; compound at 1 μM
[7] = biological target: panel of more than 300 wild-type and mutant kinases (313 kinase panel) (Homo sapiens, UniProt Q15759)
[8] = biological target: panel of more than 300 wild-type and mutant kinases (313 kinase panel) (Homo sapiens, UniProt Q5VT25)

Compound	%-inhibition of IKKε [1] [%]	%-inhibition of Erk2 [2] [%]	%-inhibition of TTK [3] [%]	%-inhibition of LOK ([4]; kinase LOK, compound at 1 μM) [%]	%-inhibition, AurA/TPX2 [5] [%]	%-inhibition, AurA [5] [%]	%-inhibition of LTK [6] [%]	%-inhibition of p38β ([7]; kinase p38β, 1 μM) [%]	%-inhibition of MRCKα ([8]; 1 µM) [%]	%-inhibition of LOK ([4]; 1 µM) [%]	%-inhibition of MRCKα ([8]; kinase MRCKα, 1 μM) [%]	%-inhibition of p38β ([7]; 1 µM) [%]
CS(=O)(=O)CCNCc1ccc(-c2ccc3ncnc(Nc4ccc(OCc5cccc(F)c5)c(Cl)c4)c3c2)o1 [lapatinib]	-5	-7	0.257	17	-10	5.59	4.66	-10	-2.49			
Cc1cn(-c2cc(NC(=O)c3ccc(C)c(Nc4nccc(-c5cccnc5)n4)c3)cc(C(F)(F)F)c2)cn1 [nilotinib]	-2.79	1.49	-8		-9	-5.43	7.51	96		-18	-13	
CNC(=O)c1cc(Oc2ccc(NC(=O)Nc3ccc(Cl)c(C(F)(F)F)c3)c(F)c2)ccn1 [regorafenib]	-7	-5	0.186	80	-4	7	-1.56	98			-5	
N#CC[C@H](C1CCCC1)n1cc(-c2ncnc3[nH]ccc23)cn1 [ruxolitinib]	15	-5.62	2	3.51	63		97				0.766	-0.778
CO[C@H]1C[C@@H]2CC[C@@H](C)[C@@](O)(O2)C(=O)C(=O)N2CCCC[C@H]2C(=O)O[C@H]([C@H](C)C[C@@H]2CC[C@@H](OC(=O)C(C)(CO)CO)[C@H](OC)C2)CC(=O)[C@H](C)/C=C(\C)[C@@H](O)[C@@H](OC)C(=O)[C@H](C)C[C@H](C)/C=C/C=C/C=C/1C [temsirolimus]	-11	-6	-22	-5	-3.42	-12	-10	-2			-1.53	
CC(=O)Nc1cccc(-n2c(=O)n(C3CC3)c(=O)c3c(Nc4ccc(I)cc4F)n(C)c(=O)c(C)c32)c1 [trametinib]	-3.63	-5	59	12	-5.37	-2	-7	2.31			-0.565	
CCCS(=O)(=O)Nc1ccc(F)c(C(=O)c2c[nH]c3ncc(-c4ccc(Cl)cc4)cc23)c1F [vemurafenib]	-9	-4.58	-14	-1	-2.59	23	2.6	24			0.383	
